Experimental data reported in US20240287104A1, “NUCLIDE LABELLED H-TETRAZINES AND USE THEREOF FOR PET AND SPECT PRETARGETED IMAGING AND RADIONUCLIDE THERAPY” (RIGSHOSPITALET, priority 2020, published 2024).

Assays:
[1] = system: CC49-TCO pretargeted LS174T tumor xenografts; assay: Pretargeted PET imaging with six 18F-labeled Tz-derivatives (Example 140); type: in vivo, BALB/c nude mice; conditions: PET 1 h p.i., n=3-4 per group
Method: Mice (n=3-4 per group) were injected i.v. with either CC49-TCO or 0.9% saline (control experiments). After 72 h, ^18F-labeled Tz (5-10 MBq) were administered and the mice were PET/CT-scanned 1 h p.i. A 3D region of interest (ROI) was created on the entire tumor volume, as well as heart and muscle tissue, and the uptake was quantified as percentage of the injected dose per gram (mean % ID/g), tumor-to-blood (T/B) and tumor-to-muscle (T/M) ratios (FIG. 18A-D). FIG. 18 (A) is a schematic illustration of the pretargeting experiment and the research question: Is there a correlation between the blocking effect and the PET imaging contras. (B) Image-derived mean uptake values are presented as percentage of the injected dose per gram (% ID/g) in tumor. (C) Tumor-to-muscle (T/M) ratios (n=4 mice, except for [^18F]3, n=3). Data is represented as mean±S.D. (*p<0.05 and *** p<0.001). For all groups n=4 mice (except [^18F]3a where n=3) (D) Correlation between the blocking effect of the unlabeled Tz-derivatives 1a, 3a, 19a, 26a, 44a, and 45a and the T/M-ratios for the corresponding ^18F-labeled compounds observed by in vivo pretargeted PET imaging. A strong correlation was found (linear regression: R2=0.78, p=0.019, n=6). Data is represented as mean±S.D. The asterisk indicates significant difference (* p<0.05 and *** p<0.001) when compared to control. (E) Representative images of PET scans 1 h p.i. of the radiolabeled Tz ([^18F]1a, [^18F]3a, [^18F]19a, [^18F]26a, [^18F]44a and [^18F]45a) in pretargeted PET imaging studies (T indicates the position of the tumor).
This difference was also observed for the three ^18F-labeled Tz-derivatives showing specific tumor accumulation ([^18F]3a, [^18F]19a and [^18F]45a), but not for the non-accumulating probes [^18F]1a and [^18F]26a (FIG. 18B). Binding to residual mAb in the blood pool is a frequently reported challenge in pretargeted imaging approaches, and has been addressed by the development of clearing agents.

[2] = In vivo stability of 18F-labeled Tz-derivatives, plasma radio-TLC; conditions: naïve mice, n=4
Source text: In order to verify that the results from the blocking study can be used to predict the outcome for in vivo PET imaging, 18 Tz-derivatives from the first library were selected. The selection was based on criteria such as, the possibility for ^18F-labeling, structural diversity, lipophilicities and distinct IEDDA reactivities. For this purpose, we decided to use an indirect radiolabeling approach, enabling the combination of different building blocks to rapidly access a series of ^18F-labeled Tz-derivatives. The Cu-catalyzed azide-alkyne [3+2] cycloaddition (CuAAC) appeared to be suitable in this respect, as it allows for fast and efficient radiolabeling under mild reaction conditions. Six precursor Tz-alkynes (I-VI) were prepared and reacted with three ^18F-labeled azides ([^18F]Az1-Az3) to obtain 18 different [^18F]Tz-probes (FIG. 17). Notes to Table 6 showing the results obtained: ^aRCYs were decay-corrected to the starting amount of radioactivity for the respective azide or *RCY was determined starting from ^18F—. ^bMolar activities (Am) differ due to the use of different cyclotrons. ^cRCP was determined by radio-HPLC. ^dIn vivo stability of [^18F]Tz was assessed by determining the fraction (%) of radioactivity corresponding to intact compound after 30 min (n=4) from radio-TLC analysis. n.d.=not determined.
Next, we investigated whether there is a relationship between the in vivo stability of Tz-derivatives and their blocking ability. Fifteen ^18F-labeled tetrazines were studied in naïve mice. Blood was collected after 30 min, and plasma samples were analyzed by radio-TLC for stability assessment (Table 6). […] Consequently, six [^18F]Tz ([^18F]1a, [^18F]3a, [^18F]19a, [^18F]26a, [^18F]44a, and [^18F]45a) were selected for further in vivo studies solely based on the IEDDA-reactivity (second-order rate constants between 72 and 230 M^−1s^−1) and lipophilicity (c log D7.4 between −1.53 and 2.10). These radiolabeled Tz-probes were used to investigate if the results from the blocking assay can be translated to pretargeted PET imaging at tracer doses.

[3] = system: CC49-TCO pretargeted LS174T colon carcinoma xenografts; assay: Pretargeted blocking assay with [111In]Q (Example 140); type: in vivo, BALB/c mice; conditions: as listed in Table 6, value of the unlabeled Tz
Method: All animal studies were approved by the Danish Animal Welfare Council, ministry of Justice. Five weeks old female nude BALB/c mice (Charles River, Sulzfeld, Germany) were allowed to acclimatize for one week with access to water and chow ad libitum. Human colon cancer cell line (LS174T; obtained from ATCC) was cultured in minimum essential medium (MEM) supplemented with 10% fetal bovine serum, 1% L-Glutamine, 1% Sodium pyruvate, 1% non-essential amino acids, and 1% penicillin-streptomycin at 37° C. and 5% CO2. Cells were harvested by trypsination at a confluence of 70-90% and subcutaneous tumors were established in the left flank of the 6 weeks old animals by inoculation of ˜5×10^6 LS174T cells resuspended in sterile PBS (100 μL) and allowed to grow for 7-10 days. Tumors were measured using a caliper and the volume calculated using the formula volume=½(length×width^2).
The assay was inspired by receptor blocking experiments and based on the pretargeted imaging approach reported by Rossin et al. An ^111In-labeled Tz [^111In]Q was used in pair with TCO-modified CC49, a non-internalizing mAb that targets the tumor-associated glycoprotein 72 (TAG72), as a benchmark model for the in vivo ligation.
The TCO-modification of CC49 was carried out according to Rossin et al. To study the in vivo ligation performance of Tz-derivatives 1a-45a, BALB/c mice bearing LS174T colon carcinoma xenografts were injected intravenously (i.v.) with CC49-TCO 72 h prior to i.v. injection of the unlabeled Tz, followed by administration of [^111In]Q 1 h later. The animals were euthanized after 22 h and an ex vivo biodistribution was carried out to quantify the tumor uptake of [111 In]Q (FIG. 15). The efficiency of the in vivo ligation of the unlabeled Tz can thus be correlated to a reduced uptake of [111 In]Q (FIG. 15). As a control, blocking was performed using the non-radioactive precursor of [^111In]Q, which blocked ≥99% of the [^111In]Q tumor uptake. A group of CC49-TCO pretreated mice were injected exclusively with [^111In]Q (without blocking) and the determined uptake was used as reference value (100%) to normalize the observed changes in tumor uptake in blocking experiments.
All of these probes include H-phenyl-, pyrimidyl-phenyl-, or bis(pyridyl)-Tz-scaffolds with second-order rate constants for the reaction with TCO of >70 M 1 s 1 (1,4-dioxane, 25° C.) or of >39,000 M 1 s 1 (DPBS, 37° C.) (cf. Table 5). Next, potential correlations between the blocking effect, the c log D7.4 and the TPSA, as well as IEDDA reactivity were investigated. […] However, a distinct relationship between c log D7.4 values and the blocking effect was evidently observed when comparing Tz-derivatives with similar IEDDA reactivity (FIG. 16C, 16D). For all Tz-scaffolds a Pearson's correlation coefficient >0.78 was found. […] The blocking effect of non-radiolabeled Tz was determined as the change in tumor uptake of [111 In]Q 22 h p.i. Each Tz was administered 1 h prior to [111 In]Q and the uptake normalized to a group of animals were no blocking was performed (control). Data represent mean from n=3 mice/group. Correlation of blocking effect and c log D7.4 for Tz-derivatives with similar IEDDA reactivity (as shown in FIGS. 16C and D) where data was fitted to exponential growth equation Y=Y0 ekx (dotted line). The statistical analysis of the correlation between tumor uptake and c log D7.4 for the different groups of Tz-derivatives (shown in Table 7) was obtained by Pearson's correlation coefficient (r) which describes the goodness of fit between the blocking effect and c log D7.4. Notes: a Reaction of representative Tz with unsubstituted TCO; “Reaction of representative Tz with TCO-PEG4;” Measured for Tz-scaffold A only; n.d.=not determined.

[4] = Second order rate constants from stopped-flow measurements with TCO at 25° C. in ACN (Table 1); type: physicochemical; conditions: second order rate constants estimated from stopped-flow measurements of the alkyne-Tz building block with TCO at 25° C. in ACN
Method: In Table 1, the following letters in brackets defines the following: [a] Radiochemical conversion (RCC) and Radiochemical purity (RCP) were determined by radio-HPLC (n=3); [b] Radiochemical yield (RCY) was decay corrected to the starting amount of radioactivity received from the cyclotron and the isolated product without formulation step (n=3); [c] Second order rate constants estimated from stopped-flow measurements of the alkyne-Tz building block with TCO at 25° C. in CAN; [d] No product formed or could not be isolated.
Reaction kinetics of the Tz-derivatives were determined by pseudo-first order measurements in dioxane at 25.0±0.1° C. or PBS at 27.0±0.1° ° C. in a SX20 stopped flow photometer (Applied Photophysics). The pseudo first order rate constant was determined by linearization of the decay curve followed by linear fitting. The second order rate constant was calculated from the pseudo-first order rate constant.

In vivo stability (% intact [^18F]Tz after 30 min) [2] [%]	Compound	Tumor accumulation in mice pretreated with CC49-TCO compared to control animals [1]	Blocking effect (%) (of unlabeled Tz) [3]	k2 [4] [M⁻¹ s⁻¹]
90	[18F]CCn1cc(COc2ccc(-c3nncnn3)cc2)nn1 [[^18F]1a]	no significant difference in tumor uptake	9	–
76	O[C@@H]1[C@@H](O)[C@H](n2cc(COc3ccc(-c4nncnn4)cc3)nn2)O[C@H](C[18F])[C@H]1O [[^18F]3a]	significantly increased tumor accumulation	81	–
26	Cc1nnc(-c2ccc(OCc3cn(CC[18F])nn3)cc2)nn1 [[^18F]5a]	–	10	–
60	Cc1nnc(-c2ccc(OCc3cn([C@@H]4O[C@H](C[18F])[C@@H](O)[C@H](O)[C@H]4O)nn3)cc2)nn1 [[^18F]7a]	–	3	–
10	[18F]CCn1cc(COc2ccc(-c3nnc(-c4ccccn4)nn3)cc2)nn1 [[^18F]12a]	–	0	–
43	O[C@@H]1[C@@H](O)[C@H](n2cc(COc3ccc(-c4nnc(-c5ccccn5)nn4)cc3)nn2)O[C@H](C[18F])[C@H]1O [[^18F]14a]	–	24	–
32	[18F]CCn1cc(-c2ccc(-c3nncnn3)cc2)nn1 [[^18F]17a]	–	0	–
87	O[C@@H]1[C@@H](O)[C@H](n2cc(-c3ccc(-c4nncnn4)cc3)nn2)O[C@H](C[18F])[C@H]1O [[^18F]19a]	significantly increased tumor accumulation	76	–
10	O=C(CCc1cn(CC[18F])nn1)Nc1ccc(-c2nnc(-c3ccccn3)nn2)nc1 [[^18F]43a]	–	67	–
42	O=C(CCc1cn([C@@H]2O[C@H](C[18F])[C@@H](O)[C@H](O)[C@H]2O)nn1)Nc1ccc(-c2nnc(-c3ccccn3)nn2)nc1 [[^18F]45a]	significantly increased tumor accumulation	99	–

The remaining lines, values behind:

Compound	In vivo stability (% intact [^18F]Tz after 30 min) [2] [%]	Tumor accumulation in mice pretreated with CC49-TCO compared to control animals [1]	Blocking effect (%) (of unlabeled Tz) [3]	k2 [4] [M⁻¹ s⁻¹]
O=C(Nc1ccc(-c2nnc(-c3ccccn3)nn2)nc1)c1ccc(-c2cn(CC[18F])nn2)cc1 [[^18F]25a]	–	–	16	–
O=C(Nc1ccc(-c2nnc(-c3ccccn3)nn2)nc1)c1ccc(-c2cn([C@@H]3O[C@H](C[18F])[C@@H](O)[C@H](O)[C@H]3O)nn2)cc1 [[^18F]27a]	–	–	51	–
[18F]c1cccc(-c2nncnn2)c1 [[^18F]-9]	–	–	–	222
[18F]c1ccc(-c2nnc(-c3ccccc3)nn2)cc1 [[^18F]E]	–	–	–	18
[18F]c1cccc(-c2nnc(-c3ccccc3)nn2)c1 [[^18F]R]	–	–	–	30
[18F]c1ccc(-c2nnc(-c3ccccn3)nn2)cc1 [[^18F]T]	–	–	–	106
Cc1nnc(-c2ccc([18F])cc2)nn1 [[^18F]Tz1]	–	–	–	2.25
[18F]c1ccc(-c2nnc(-c3ccccn3)nn2)nc1 [[^18F]U]	–	–	–	206
[18F]c1ccc(-c2nncnn2)cc1 [[^18F]Y]	–	–	–	159
